Source: publication PMC3735166, “Comparative Studies on Acetylcholinesterase Characteristics between the Aphids, Sitobion avenae and Rhopalosiphum padi” (Journal of Insect Science, 2013)
Structures can show the parent of a compound that is named as a salt. Where two headings read alike, the source gives them in different places.

Key:
[1] = biological target: T1, crude extract AChE from R. padi (Rhopalosiphum padi, UniProt Q6BCH8); assay: Substrate specificity and kinetic analysis of crude extract AChE from R. padi; assay type: biochemical; conditions: compound as substrate, 30°C; for Km: read-out: Km ± SE
T1 sequence (Q6BCH8 18-652): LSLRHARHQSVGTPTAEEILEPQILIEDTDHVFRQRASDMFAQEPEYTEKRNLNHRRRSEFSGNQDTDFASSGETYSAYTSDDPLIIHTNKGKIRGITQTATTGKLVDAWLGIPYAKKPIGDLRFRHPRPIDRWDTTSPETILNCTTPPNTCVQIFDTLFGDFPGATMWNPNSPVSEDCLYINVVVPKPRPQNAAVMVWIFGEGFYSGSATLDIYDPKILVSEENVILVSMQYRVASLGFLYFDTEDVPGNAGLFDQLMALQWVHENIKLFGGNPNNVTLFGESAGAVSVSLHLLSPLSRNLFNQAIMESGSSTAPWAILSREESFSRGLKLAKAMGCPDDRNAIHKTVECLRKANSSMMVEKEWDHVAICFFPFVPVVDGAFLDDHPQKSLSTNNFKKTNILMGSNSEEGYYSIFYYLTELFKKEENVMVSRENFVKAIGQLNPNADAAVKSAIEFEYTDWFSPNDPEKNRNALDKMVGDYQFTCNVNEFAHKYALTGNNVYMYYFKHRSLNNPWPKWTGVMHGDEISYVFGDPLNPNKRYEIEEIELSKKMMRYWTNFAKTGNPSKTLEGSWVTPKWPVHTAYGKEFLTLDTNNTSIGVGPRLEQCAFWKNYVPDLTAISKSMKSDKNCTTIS
Procedure: (§1) Step 1: Preparation of crude extract. About 1.0 g apterous adults were homogenized in 10 mL ice-cold 0.1 M phosphate buffer (pH 7.5), containing 0.2 M NaCl and 0.5 % (v/v) Triton X-100 and three protease inhibitors (1 mM EDTA-Na2, 1 µM leupeptin, and 10 µM PMSF). The homogenate was filtered through cheesecloth and then centrifuged at 41,000 g, 4°C for 1 h. The supernatant, after being filtered through glass wool, was used as crude extract.
(§2) AChE activities were determined according to the method of Ellman et al. ([1961]) modified by Gao ([1987]), using ATCh, PrTCh, MeTCh and BuTCh as substrates. The AChE activities were determined at 6 substrate concentrations from 0.15625 to 5 mM based on the reaction at 30°C for 15 min and the reaction was stopped by the addition of 900 µL, DTNB (0.125 mM) with 40% ethanol, then the optical density (OD) was measured at 412 nm by spectrophotometer (Lambda Bio 40).
(§3) All statistical tests were performed by using SAS computer program (USA). Values of Michalelis-Menten constants (Km) and maximal velocities (Vmax) for four substrates were calculated by Enzfitter software (Biosoft, http://www.biosoft.com/).

[2] = biological target: T2, crude extract AChE from S. avenae (Sitobion avenae, UniProt Q66S75); assay: Substrate specificity and kinetic analysis of crude extract AChE from S. avenae; assay type: biochemical; conditions: compound as substrate, 30°C; for Km: read-out: Km ± SE
T2 sequence (Q66S75 23-664): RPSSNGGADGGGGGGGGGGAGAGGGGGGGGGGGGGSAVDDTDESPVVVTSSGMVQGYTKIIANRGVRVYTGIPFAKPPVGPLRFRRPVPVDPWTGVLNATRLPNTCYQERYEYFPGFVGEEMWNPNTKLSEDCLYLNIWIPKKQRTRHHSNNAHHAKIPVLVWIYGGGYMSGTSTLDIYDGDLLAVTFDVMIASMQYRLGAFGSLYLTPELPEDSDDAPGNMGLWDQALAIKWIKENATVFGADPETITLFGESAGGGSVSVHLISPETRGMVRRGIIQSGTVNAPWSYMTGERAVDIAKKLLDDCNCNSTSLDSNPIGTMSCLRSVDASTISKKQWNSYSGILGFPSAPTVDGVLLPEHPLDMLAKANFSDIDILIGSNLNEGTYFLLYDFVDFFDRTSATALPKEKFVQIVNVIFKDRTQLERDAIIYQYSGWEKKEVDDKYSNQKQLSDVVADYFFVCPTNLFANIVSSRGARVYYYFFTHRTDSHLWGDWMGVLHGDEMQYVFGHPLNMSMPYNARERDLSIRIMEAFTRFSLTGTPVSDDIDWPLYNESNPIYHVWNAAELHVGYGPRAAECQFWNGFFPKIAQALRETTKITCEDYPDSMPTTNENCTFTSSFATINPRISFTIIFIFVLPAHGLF
Procedure: as §1, §2, §3

[3] = biological target: T3, purified AChE from R. padi (Rhopalosiphum padi, UniProt Q6BCH8); assay: Substrate specificity and kinetic analysis of purified AChE from R. padi; assay type: biochemical; conditions: for Vmax ± SE / Km: compound as substrate, 30°C; for Km: read-out: Km ± SE
T3 sequence (Q6BCH8 18-652): as the sequence (Q6BCH8 18-652) above
Procedure: (§4) Purification of AChE from both aphid species was performed by affinity chromatography using procainamide as the affinity ligand. The procedure used in this study was according to the method of Gao and Zhu ([2001]) with some modifications, as follows:
as §1
(§5) Step 2: Chromatography on sephadex G-25. […] The fractions (5 ml each) were collected at the flow rate of 45 mL/h at 4°C. All the fractions containing the AChE activity were collected as the enzyme resource for the next step.
(§6) Step 3: Procainamide affinity chromatography and removal of procainamide and condensation. The procainamide-based AChE affinity column was made according to the instructions from the manufacturer. […] The collected AChE dialyzed against 0.05 M, pH 7.5 phosphate buffer three times for 3 h. The enzyme was stored at 4°C and used as the enzyme source.
as §2, §3

[4] = biological target: T4, purified AChE from S. avenae (Sitobion avenae, UniProt Q66S75); assay: Substrate specificity and kinetic analysis of purified AChE from S. avenae; assay type: biochemical; conditions: for Vmax ± SE / Km: compound as substrate, 30°C; for Km: read-out: Km ± SE
T4 sequence (Q66S75 23-664): T2 sequence (Q66S75 23-664)
Procedure: as §4, §1, §5, §6, §2, §3

[5] = biological target: T3, purified AChE from R. padi; assay: Substrate specificity and kinetic analysis of purified AChE from R. padi; assay type: biochemical; conditions: substrate 15 mM
[6] = biological target: T1, crude extract AChE from R. padi; assay: Inhibition of crude extract AChE from R. padi (Ellman method, 5 min preincubation); assay type: biochemical; conditions: for inhibitory percentage of AChE specific activity: inhibitor 10 µM
Procedure: as §1, §2
(§7) The value of median inhibition concentration (I50) for the inhibitors were calculated based on log (inhibitor concentration) vs. probit (percentage of inhibition) linear regression.

[7] = biological target: T2, crude extract AChE from S. avenae; assay: Inhibition of crude extract AChE from S. avenae (Ellman method, 5 min preincubation); assay type: biochemical; conditions: for I50 times higher in S. avenae than in R. padi: ratio of I50 values of Table 4
Procedure: as §1, §2, §7

[8] = biological target: T3, purified AChE from R. padi; assay: Inhibition of purified AChE from R. padi (Ellman method, 5 min preincubation); assay type: biochemical; conditions: for inhibitory percentage of AChE specific activity: inhibitor 10 µM
Procedure: as §4, §1, §5, §6, §2, §7

[9] = biological target: T4, purified AChE from S. avenae; assay: Inhibition of purified AChE from S. avenae (Ellman method, 5 min preincubation); assay type: biochemical
Procedure: as §4, §1, §5, §6, §2, §7

[10] = biological target: T1, crude extract AChE from R. padi; conditions: comparison of the two aphid species; ref Lu and Gao 2009; cited from earlier work
S. avenae and R. padi = conditions: comparison of the two aphid species, ref Lu and Gao 2009, cited from earlier work
[11] = preincubation 5 min at 30°C, mean of three determinations, read-out: I50 ± SE (median inhibition concentration)
[12] = S. avenae, preincubation 5 min at 30°C, mean of three determinations, read-out: I50 ± SE (median inhibition concentration)

SMILES | Vmax ± SE [1] [nmol/min/mg protein] | Km [1] [µM] | Vmax ± SE [2] [nmol/min/mg protein] | Km [2] [µM] | Vmax ± SE [3] [nmol/min/mg protein] | Km [3] [µM] | Vmax ± SE [4] [nmol/min/mg protein] | Km [4] [µM] | also measured
CC(=O)SCC[N+](C)(C)C.[I-] [ATCh, Acetylthiocholine iodide] | 1.27 ± 0.05 | 360 ± 50 | 1.16 ± 0.11 | 650 ± 190 | 37.58 ± 1.01 | 2180 ± 130 | 152.75 ± 3.63 | 2280 ± 120 | substrate concentration at which substrate inhibition was observed [3]: > 10 mM; substrate concentration at which substrate inhibition was observed [4]: > 10 mM; specific activity of purified AChE [5]: 20.3 nmol/min/mg
C=CC[N+](C)(C)c1ccc(CCC(=O)CCc2ccc([N+](C)(C)CC=C)cc2)cc1.[Br-].[Br-] [BW284C51, 1,5-bis(4-allyldimethylammoniumphenyl)-pentan-3-one dibromide] |  |  |  |  |  |  |  |  | inhibitory percentage of AChE specific activity [6]: about 50%; IC50 [6, 11]: 9.7 ± 1 µM; IC50 [7, 12]: 24.7 ± 4.9 µM; I50 times higher in S. avenae than in R. padi [7]: 2.5 times; inhibitory percentage of AChE specific activity [8]: > 80%; IC50 [8, 11]: 2.57 ± 0.34 µM; inhibitory percentage of AChE specific activity ([9]; S. avenae, inhibitor 10 µM): > 80%; IC50 [9, 12]: 1 ± 0.13 µM; I50 fold lower in S. avenae than in R. padi ([9]; from I50 values of Table 5): 0.4 fold
CCCC(=O)SCC[N+](C)(C)C.[I-] [BuTCh, butyrylthiocholine iodide] | 4.12 ± 1.34 | 5340 ± 2790 | 11.88 ± 3.88 | 15100 ± 6210 | 2.17 ± 0.09 | 670 ± 80 | 9.09 ± 0.14 | 1690 ± 60 | 
CNC(=O)Oc1ccc2c(c1)[C@]1(C)CCN(C)[C@@H]1N2C [Eserine, eserine hemisulfate salt] |  |  |  |  |  |  |  |  | inhibitory percentage of AChE specific activity [6]: about 50%; I50 times higher in S. avenae than in R. padi [7]: 4.1 times; inhibitory percentage of AChE specific activity [8]: more than 90%
CC(=O)SC(C)C[N+](C)(C)C (stereo not drawn) [MeTCh, acetyl-(β-methyl) thiocholine] | 1.10 ± 0.07 | 290 ± 80 | 1.01 ± 0.10 | 400 ± 140 | 31.58 ± 1.03 | 2450 ± 170 | 118.32 ± 5.64 | 2230 ± 230 | substrate concentration at which substrate inhibition was observed [3]: > 10 mM; substrate concentration at which substrate inhibition was observed [4]: > 10 mM; specific activity of purified AChE [5]: 17.7 nmol/min/mg
Cc1nc(N(C)C)nc(OC(=O)N(C)C)c1C [Pirimicarb] |  |  |  |  |  |  |  |  | sensitivity of AChE to pirimicarb, R. padi versus S. avenae [10]: significantly higher in R. padi than in S. avenae; susceptibility / tolerance to pirimicarb in bioassays, S. avenae versus R. padi (S. avenae and R. padi): higher for S. avenae than for R. padi; susceptibility / tolerance to pirimicarb in bioassays, S. avenae versus R. padi (S. avenae and R. padi; listed as pirimicarb): R. padi was more susceptible than S. avenae
CCC(=O)SCC[N+](C)(C)C.[I-] [PrTCh, propionylthiocholine iodide] | 0.76 ± 0.03 | 180 ± 40 | 1.04 ± 0.15 | 570 ± 260 | 24.24 ± 0.30 | 850 ± 30 | 94.01 ± 4.41 | 930 ± 120 | 
